Data from ChEMBL document CHEMBL2385047, “Synthesis and antifungal evaluation of pentyloxyl-diphenylisoxazoloyl pneumocandins and echinocandins” (Bioorg Med Chem Lett, 2013).
pIC50: −log10 of the molar value. Converted amounts (≈) assume the structure as drawn. Numbered stars: 1 amine (or outer) side, 2 acyl side, 3 side chain; on linkers, the order of the positions; unused ones are H or OH. Bridge positions count the residues as written; N and C are the ends. Square brackets hold non-standard residues; d marks the D form. Peptide text beside a SMILES is read from it. * marks the point of attachment. Orn(4R-OH,5R-OH) = O=C([C@H](C[C@@H](O)[C@@H](O)N[*:3])N[*:1])[*:2]; hTyr(3S-OH,4S-OH) = N[C@H](C(=O)O)[C@H](O)[C@@H](O)c1ccc(O)cc1; X1 = CCCCCOc1ccc(-c2cc(-c3ccc(C(=O)*)cc3)no2)cc1; Gln(3R-OH) = NC(=O)C[C@@H](O)[C@H](N)C(=O)O; Pro(3S-OH) = O=C(O)[C@H]1NCC[C@@H]1O; Hyp = O=C(O)[C@@H]1C[C@@H](O)CN1

How the values were obtained:
[1] = system: Candida albicans; experiment: Antifungal activity against Candida albicans MY1055 infected in DBA/2 mouse assessed as reduction of log CFU in kidney administered 30 mins as ip tid post infection measured after 24 hrs; type: functional
[2] = system: Candida albicans; experiment: Antifungal activity against caspofungin-resistant Candida albicans CLY-16996 harboring 1,3-beta-D-glucan synthase component FKS1/FKS1 S645F mutant assessed as growth inhibition after 24 hrs by NCCLS broth microdilution method; type: functional; details: CLY-16996, 24 h
[3] = Inhibition of caspofungin-resistant Candida albicans CLY-16997 1,3-beta-D-glucan synthase component FKS1/FKS1 S645P mutant using UDP[6,3H]-glucose as substrate after 60 mins by liquid scintillation counting analysis
[4] = Inhibition of caspofungin-resistant Candida albicans CLY-16996 1,3-beta-D-glucan synthase component FKS1/FKS1 S645F mutant using UDP[6,3H]-glucose as substrate after 60 mins by liquid scintillation counting analysis
[5] = target: T1, Beta-1,3-glucan synthase (Candida albicans, UniProt O13383); experiment: Inhibition of wild type Candida albicans MY1055 1,3-beta-D-glucan synthase using UDP[6,3H]-glucose as substrate after 60 mins by liquid scintillation counting analysis
T1 sequence (O13383 whole entry): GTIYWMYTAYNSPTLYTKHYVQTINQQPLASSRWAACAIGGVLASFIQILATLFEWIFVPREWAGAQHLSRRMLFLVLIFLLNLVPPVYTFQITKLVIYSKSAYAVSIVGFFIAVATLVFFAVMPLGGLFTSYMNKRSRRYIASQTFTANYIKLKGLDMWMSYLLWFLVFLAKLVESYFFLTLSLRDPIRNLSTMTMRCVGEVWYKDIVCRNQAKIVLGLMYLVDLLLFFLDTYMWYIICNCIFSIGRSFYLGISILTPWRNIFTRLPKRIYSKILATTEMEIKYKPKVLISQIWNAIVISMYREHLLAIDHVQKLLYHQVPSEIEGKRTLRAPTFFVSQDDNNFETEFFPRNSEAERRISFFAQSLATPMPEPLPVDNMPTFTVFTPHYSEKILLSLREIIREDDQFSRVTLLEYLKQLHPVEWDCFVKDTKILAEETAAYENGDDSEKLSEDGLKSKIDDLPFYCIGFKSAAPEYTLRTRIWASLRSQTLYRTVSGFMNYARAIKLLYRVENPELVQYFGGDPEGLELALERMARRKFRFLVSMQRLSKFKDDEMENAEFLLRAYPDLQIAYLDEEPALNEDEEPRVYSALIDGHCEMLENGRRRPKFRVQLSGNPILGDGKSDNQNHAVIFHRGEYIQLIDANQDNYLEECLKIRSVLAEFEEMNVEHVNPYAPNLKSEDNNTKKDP

[6] = system: Escherichia coli; experiment: Antibacterial activity against Escherichia coli ATCC 25922 assessed as growth inhibition after 24 hrs by NCCLS broth microdilution method; type: functional; details: ATCC 25922, 24 h, read-out: MIC100
[7] = system: Staphylococcus aureus; experiment: Antibacterial activity against methicillin-sensitive Staphylococcus aureus MB2865 assessed as growth inhibition after 24 hrs by NCCLS broth microdilution method; type: functional; details: MB2865, 24 h, read-out: MIC100
[8] = system: Candida albicans; experiment: Antifungal activity against Candida albicans NR3 assessed as growth inhibition after 24 hrs by NCCLS broth microdilution method; type: functional; details: NR3, 24 h; for MIC: read-out: MIC100
[9] = system: Candida albicans; experiment: Antifungal activity against Candida albicans CAI4-R1 assessed as growth inhibition after 24 hrs by NCCLS broth microdilution method; type: functional; details: CAI4-R1, 24 h; for MIC: read-out: MIC100
[10] = system: Candida albicans; experiment: Antifungal activity against wild type Candida albicans CAI4 assessed as growth inhibition after 24 hrs by NCCLS broth microdilution method; type: functional; details: CAI4, 24 h; for MIC: read-out: MIC100
[11] = system: Meyerozyma guilliermondii; experiment: Antifungal activity against wild type Candida guilliermondii CLY308 assessed as growth inhibition after 24 hrs by NCCLS broth microdilution method; type: functional; details: CLY308, 24 h; for MIC: read-out: MIC100
[12] = system: Aspergillus fumigatus; experiment: Antifungal activity against Aspergillus fumigatus MF5668 caspofungin spontaneous resistance mutant assessed as growth inhibition after 24 hrs by NCCLS broth microdilution method; type: functional; details: MF5668, 24 h; for minimal effective concentration: read-out: MEC
[13] = system: Cryptococcus neoformans; experiment: Antifungal activity against capsular wild type Cryptococcus neoformans MY2061 assessed as growth inhibition after 24 hrs by NCCLS broth microdilution method; type: functional; details: MY2061, 24 h, read-out: MIC100
[14] = system: Candida parapsilosis; experiment: Antifungal activity against wild type Candida parapsilosis ATCC 22019 assessed as growth inhibition after 24 hrs by NCCLS broth microdilution method; type: functional; details: Lodderomyces parapsilosis, ATCC 22019, 24 h; for MIC: read-out: MIC100
[15] = system: Pichia kudriavzevii; experiment: Antifungal activity against wild type Candida krusei CLY549 assessed as growth inhibition after 24 hrs by NCCLS broth microdilution method; type: functional; details: CLY549, 24 h; for MIC: read-out: MIC100
[16] = system: Clavispora lusitaniae; experiment: Antifungal activity against wild type Candida lusitaniae MY1396 assessed as growth inhibition after 24 hrs by NCCLS broth microdilution method; type: functional; details: MY1396, 24 h; for MIC: read-out: MIC100
[17] = system: Nakaseomyces glabratus; experiment: Antifungal activity against wild type Candida glabrata MY1381 assessed as growth inhibition after 24 hrs by NCCLS broth microdilution method; type: functional; details: MY1381, 24 h; for MIC: read-out: MIC100
[18] = system: Candida albicans; experiment: Antifungal activity against wild type Candida albicans MY1055 assessed as growth inhibition after 24 hrs by NCCLS broth microdilution method in presence of human serum; type: functional; details: MY1055, 24 h; for MIC: read-out: MIC100
[19] = system: Candida albicans; experiment: Antifungal activity against wild type Candida albicans MY1055 assessed as growth inhibition after 24 hrs by NCCLS broth microdilution method; type: functional; details: MY1055, 24 h; for MIC: read-out: MIC100

Row | SMILES | ED90 [1] | ED99 [1] | MIC [2] | pIC50 [3] | pIC50 [4] | pIC50 [5] | MIC [6] | MIC [7] | MIC80 [8] | MIC [8] | MIC80 [9] | MIC [9] | MIC80 [10] | MIC [10] | MIC80 [11] | MIC [11] | MIC80 [12] | minimal effective concentration [12] | MIC [13] | MIC80 [14] | further results
1 | CC[C@H](C)C[C@H](C)CCCCCCCCC(=O)N[C@H]1C[C@@H](O)[C@@H](NCCN)NC(=O)[C@@H]2[C@@H](O)CCN2C(=O)[C@H]([C@H](O)CCN)NC(=O)[C@H]([C@H](O)[C@@H](O)c2ccc(O)cc2)NC(=O)[C@@H]2C[C@@H](O)CN2C(=O)[C@H]([C@@H](C)O)NC1=O [CASPOFUNGIN] | 0.02 mg/kg/day | 0.15 mg/kg/day | 64 µg/mL (≈ 58.5 µM) | < 5.04 | < 4.04 | 9.62 | > 32 µg/mL | 32 µg/mL (≈ 29.3 µM) | 2 µg/mL (≈ 1.83 µM) | > 32 µg/mL | 1 µg/mL (≈ 0.915 µM) | > 32 µg/mL | < 0.03 µg/mL | 0.125 µg/mL (≈ 0.114 µM) | 0.25 µg/mL (≈ 0.229 µM) | 1 µg/mL (≈ 0.915 µM) | < 0.03 µg/mL | > 32 µg/mL | 16 µg/mL (≈ 14.6 µM) | 0.25 µg/mL (≈ 0.229 µM) | MIC [14]: > 32 µg/mL; MIC80 [15]: 0.25 µg/mL (≈ 0.229 µM); MIC [15]: 2 µg/mL (≈ 1.83 µM); MIC80 [16]: < 0.03 µg/mL; MIC [16]: 0.5 µg/mL (≈ 0.457 µM); MIC80 [17]: 0.06 µg/mL (≈ 0.0549 µM); MIC [17]: 0.25 µg/mL (≈ 0.229 µM); MIC80 [18]: 0.125 µg/mL; MIC [18]: 8 µg/mL; MIC80 [19]: < 0.03 µg/mL; MIC [19]: 0.06 µg/mL (≈ 0.0549 µM)
2 | CCCCCOc1ccc(-c2cc(-c3ccc(C(=O)N[C@H]4C[C@@H](O)[C@@H](O)NC(=O)[C@@H]5[C@@H](O)CCN5C(=O)[C@H]([C@H](O)CC(N)=O)NC(=O)[C@H]([C@H](O)[C@@H](O)c5ccc(O)cc5)NC(=O)[C@@H]5C[C@@H](O)CN5C(=O)[C@H]([C@@H](C)O)NC4=O)cc3)no2)cc1 (X1-[Orn(4R-OH,5R-OH)]T[Hyp][hTyr(3S-OH,4S-OH)][Gln(3R-OH)][Pro(3S-OH)]; lactam 1-C) | 0.24 mg/kg/day | 1.31 mg/kg/day | 2 µg/mL (≈ 1.72 µM) | 8.62 | 8.68 | 8.55 | > 32 µg/mL | > 32 µg/mL | 4 µg/mL (≈ 3.45 µM) | 8 µg/mL (≈ 6.9 µM) | 1 µg/mL (≈ 0.862 µM) | 4 µg/mL (≈ 3.45 µM) | < 0.03 µg/mL | 0.06 µg/mL (≈ 0.0517 µM) | 1 µg/mL (≈ 0.862 µM) | 2 µg/mL (≈ 1.72 µM) | < 0.03 µg/mL | > 32 µg/mL | > 32 µg/mL | 2 µg/mL (≈ 1.72 µM) | MIC [14]: 32 µg/mL (≈ 27.6 µM); MIC80 [15]: 0.25 µg/mL (≈ 0.215 µM); MIC [15]: 2 µg/mL (≈ 1.72 µM); MIC80 [16]: < 0.03 µg/mL; MIC [16]: 0.125 µg/mL (≈ 0.108 µM); MIC80 [17]: 0.25 µg/mL (≈ 0.215 µM); MIC [17]: 0.5 µg/mL (≈ 0.431 µM); MIC80 [18]: 0.25 µg/mL; MIC [18]: 1 µg/mL; MIC80 [19]: < 0.03 µg/mL; MIC [19]: 0.125 µg/mL (≈ 0.108 µM)
